Data reported in patent US20250312258A1, “2,3-PYRROLIDINEDIONE CONJUGATES AND METHODS OF USING THEREOF” (North Carolina State University, priority 2022, published 2025).
Values after ≈ are worked out from the molar mass of the structure shown. Like-named read-outs stand apart in the source and are kept apart here.

What was measured:
Type in all cases: cell-based
MSSA = experiment: MIC against MSSA strain panel; settings: Staphylococcus aureus, the 4th table, read-out: MIC
ATCC 29212 E. faecalis = experiment: MIC against ATCC 29212 E. faecalis; settings: Enterococcus faecalis, ATCC29212, ATCC 29212 E. faecalis, read-out: MIC
S. pneumoniae = experiment: MIC against S. pneumoniae strain panel; settings: Streptococcus pneumoniae, read-out: MIC
Group A Strep = experiment: MIC against Group A Strep strain panel; settings: read-out: MIC
Group B Strep = experiment: MIC against Group B Strep strain panel; settings: read-out: MIC
E. coli = experiment: MIC against E. coli strains; settings: the 4th table

MIC (MSSA; VGP16-99 MSSA): 1 µg/mL (≈ 2.61 µM)
MIC (MSSA; VGP16-100 MSSA): 1 µg/mL (≈ 2.61 µM)
MIC (MSSA; VGP16-101 MSSA): 1 µg/mL (≈ 2.61 µM)
MIC (MSSA; VGP16-116 MSSA): 1 µg/mL (≈ 2.61 µM)
MIC (MSSA; VGP16-117 MSSA): 1 µg/mL (≈ 2.61 µM)
MIC (ATCC 29212 E. faecalis; the 4th table): 2 µg/mL (≈ 5.23 µM)
MIC (ATCC 29212 E. faecalis; the 6th table): 2 µg/mL (≈ 5.23 µM)
MIC (S. pneumoniae; ATCC49619, ATCC 49619 S. pneumoniae, CA-MHB w/5% LHB, the 4th table): 0.25 µg/mL (≈ 0.654 µM)
MIC (S. pneumoniae; ATCC49619, ATCC 49619 S. pneumoniae, the 7th table): 0.5 µg/mL (≈ 1.31 µM)
MIC (S. pneumoniae; CO314937 S. pneumoniae, CA-MHB w/5% LHB, the 4th table): 0.5 µg/mL (≈ 1.31 µM)
MIC (S. pneumoniae; CT3-5008 S. pneumoniae, the 7th table): 0.5 µg/mL (≈ 1.31 µM)
MIC (S. pneumoniae; CT3-5803 S. pneumoniae, the 7th table): 0.5 µg/mL (≈ 1.31 µM)
MIC (S. pneumoniae; CT3-8501 S. pneumoniae, the 7th table): 0.5 µg/mL (≈ 1.31 µM)
MIC (S. pneumoniae; CT4-3048 S. pneumoniae, the 7th table): 0.5 µg/mL (≈ 1.31 µM)
MIC (S. pneumoniae; CT4-9046 S. pneumoniae, the 7th table): 0.25 µg/mL (≈ 0.654 µM)
MIC (S. pneumoniae; CT4-9693 S. pneumoniae, the 7th table): 0.5 µg/mL (≈ 1.31 µM)
MIC (S. pneumoniae; CT5-6541 S. pneumoniae, the 7th table): 0.5 µg/mL (≈ 1.31 µM)
MIC (S. pneumoniae; CT5-8032 S. pneumoniae, the 7th table): 0.5 µg/mL (≈ 1.31 µM)
MIC (S. pneumoniae; CT5-9124 S. pneumoniae, the 7th table): 0.25 µg/mL (≈ 0.654 µM)
MIC (S. pneumoniae; CT6-0670 S. pneumoniae, the 7th table): 0.5 µg/mL (≈ 1.31 µM)
MIC (S. pneumoniae; CT6-7691 S. pneumoniae, the 7th table): 0.5 µg/mL (≈ 1.31 µM)
MIC (S. pneumoniae; CT0200-2241 S. pneumoniae, the 7th table): 0.5 µg/mL (≈ 1.31 µM)
MIC (S. pneumoniae; CT0200-2730 S. pneumoniae, the 7th table): 0.5 µg/mL (≈ 1.31 µM)
MIC (S. pneumoniae; MD77773 S. pneumoniae, CA-MHB w/5% LHB, the 4th table): 0.5 µg/mL (≈ 1.31 µM)
MIC (Group A Strep; 2007-11 Group A Strep, the 8th table): 0.5 µg/mL (≈ 1.31 µM)
MIC (Group A Strep; 2007-28 Group A Strep, the 8th table): 0.5 µg/mL (≈ 1.31 µM)
MIC (Group A Strep; 2007-49 Group A Strep, the 8th table): 0.5 µg/mL (≈ 1.31 µM)
MIC (Group A Strep; 2007-73 Group A Strep, the 8th table): 0.5 µg/mL (≈ 1.31 µM)
MIC (Group A Strep; 2007-107 Group A Strep, the 8th table): 0.5 µg/mL (≈ 1.31 µM)
MIC (Group A Strep; 2007-1101 Group A Strep, the 8th table): 0.5 µg/mL (≈ 1.31 µM)
MIC (Group A Strep; 2008-06 Group A Strep, the 8th table): 0.5 µg/mL (≈ 1.31 µM)
MIC (Group A Strep; 2008-45 Group A Strep, the 8th table): 0.5 µg/mL (≈ 1.31 µM)
MIC (Group A Strep; 2008-818 Group A Strep, CA-MHB w/5% LHB, the 4th table): 0.25 µg/mL (≈ 0.654 µM)
MIC (Group A Strep; 2008-1565 Group A Strep, the 8th table): 0.5 µg/mL (≈ 1.31 µM)
MIC (Group A Strep; 2008-1692 Group A Strep, the 8th table): 0.5 µg/mL (≈ 1.31 µM)
MIC (Group A Strep; 2008-1732 Group A Strep, CA-MHB w/5% LHB, the 4th table): 0.25 µg/mL (≈ 0.654 µM)
MIC (Group A Strep; 2009-8 Group A Strep, the 8th table): 0.5 µg/mL (≈ 1.31 µM)
MIC (Group A Strep; 2009-37 Group A Strep, CA-MHB w/5% LHB, the 4th table): 0.5 µg/mL (≈ 1.31 µM)
MIC (Group A Strep; 2009-106 Group A Strep, the 8th table): 0.5 µg/mL (≈ 1.31 µM)
MIC (Group A Strep; 2009-109 Group A Strep, the 8th table): 0.5 µg/mL (≈ 1.31 µM)
MIC (Group A Strep; 2009-114 Group A Strep, the 8th table): 0.5 µg/mL (≈ 1.31 µM)
MIC (Group A Strep; 2009-136 Group A Strep, the 8th table): 0.5 µg/mL (≈ 1.31 µM)
MIC (Group B Strep; 2008-57 Group B Strep, the 9th table): 0.5 µg/mL (≈ 1.31 µM)
MIC (Group B Strep; 2008-70 Group B Strep, the 9th table): 0.5 µg/mL (≈ 1.31 µM)
MIC (Group B Strep; 2008-87 Group B Strep, CA-MHB w/5% LHB, the 4th table): 0.5 µg/mL (≈ 1.31 µM)
MIC (Group B Strep; 2008-115 Group B Strep, the 9th table): 0.5 µg/mL (≈ 1.31 µM)
MIC (Group B Strep; 2009-20 Group B Strep, the 9th table): 0.5 µg/mL (≈ 1.31 µM)
MIC (Group B Strep; 2009-40 Group B Strep, the 9th table): 0.5 µg/mL (≈ 1.31 µM)
MIC (Group B Strep; 2009-43 Group B Strep, the 9th table): 0.5 µg/mL (≈ 1.31 µM)
MIC (Group B Strep; 2009-51 Group B Strep, the 9th table): 0.5 µg/mL (≈ 1.31 µM)
MIC (Group B Strep; 2009-57 Group B Strep, the 9th table): 0.5 µg/mL (≈ 1.31 µM)
MIC (Group B Strep; 2009-59 Group B Strep, the 9th table): 0.5 µg/mL (≈ 1.31 µM)
MIC (Group B Strep; 2009-60 Group B Strep, the 9th table): 0.5 µg/mL (≈ 1.31 µM)
MIC (Group B Strep; 2009-61 Group B Strep, CA-MHB w/5% LHB, the 4th table): 0.5 µg/mL (≈ 1.31 µM)
MIC (Group B Strep; 2009-62 Group B Strep, CA-MHB w/5% LHB, the 4th table): 0.25 µg/mL (≈ 0.654 µM)
MIC (Group B Strep; J4182 Group B Strep, the 9th table): 0.5 µg/mL (≈ 1.31 µM)
MIC (Group B Strep; J4183 Group B Strep, the 9th table): 0.5 µg/mL (≈ 1.31 µM)
MIC (Group B Strep; J4185 Group B Strep, the 9th table): 0.5 µg/mL (≈ 1.31 µM)
MIC (Group B Strep; J4186 Group B Strep, the 9th table): 0.5 µg/mL (≈ 1.31 µM)
MIC (Group B Strep; J4222 Group B Strep, the 9th table): 0.5 µg/mL (≈ 1.31 µM)
MIC (E. coli; AR-137 E. coli): >64 µg/mL
MIC (E. coli; Escherichia coli, ATCC25922, ATCC 25922 E. coli, read-out: MIC): > 64 µg/mL
MIC (E. coli; Escherichia coli, AR-451 E. coli, read-out: MIC): > 64 µg/mL
SMILES: CCC1C(c2ccc(C(F)(F)F)cc2)=C(O)C(=O)N1C1CCC(NC)CC1 (stereo not drawn) [Compound 4]
